# According to patent US20180098969A1, “HODGKIN LYMPHOMA THERAPY” (Purdue Pharmaceutical Products L.P., priority 2016, published 2018):
# What was measured:
# L540 cell line = experiment: Clonogenic survival in methylcellulose; assay type: cell-based, human; conditions: any dose (0.1 to 20 μmol)
# Procedure: In all examples, the human Hodgkin lymphoma-derived cell lines L428, L428-c, KMH2, L591, L540, L1236, HDLM2 and SUP-HD were obtained from Dr Steffen Junker (Aarhus University Denmark). All cell lines were cultured in Gibco RPMI 1640 medium supplemented with Glutamax, 10% FBS and antibiotics at 37° C. […] The immunophenotype, P53 status and MSI characterization of the Hodgkin lymphoma cell lines was determined using anti-CD30, CD15, CD20 and CD14 antibodies.
# This test was performed on four Hodgkin lymphoma cell lines (L428, L428s, KMH2 and L540). Each was cultured with EDO-S101 at doses of 0, 0.1, 0.5, 1, 10 and 20 μmol in DMSO. The cell lines were cultured in methylcellulose (Stem cell Technologies) at a concentration of 10^5/ml at 37° C. and 5% CO2. The surviving fraction was determined by measuring the viability of colonies generated before and after exposure. Only colonies with more than 50 cells were counted. Each data point represents the average and SD from three independent experiments performed in triplicate.
# L428 cells = experiment: Xenograft in NSG mice, CD30 immunofluorescence of cytospin slides; assay type: in vivo; set-up: key to Spleen, red pulp activation, diffuse / Liver, Tumour cell infiltration: “0”=without any staining; “1”=minimal, <1% staining; “2”=mild, 1% staining; “3”=moderate, <10% staining; “4”=marked, 10-40% staining; “5”=severe, >40% of cells staining; conditions: for Bone Marrow: Tumour infiltration: Marked / Bone Marrow: Tumour infiltration: Mild / Bone Marrow: Tumour infiltration: Minimal / Bone Marrow: Tumour infiltration: Moderate / Bone Marrow: Tumour infiltration: No / Bone Marrow: Tumour infiltration: Overall / Bone Marrow: Tumour infiltration: Severe / Injection site: Tumour infiltration: Marked / Injection site: Tumour infiltration: Mild / Injection site: Tumour infiltration: Minimal / Injection site: Tumour infiltration: Moderate / Injection site: Tumour infiltration: No / Injection site: Tumour infiltration: Overall / Injection site: Tumour infiltration: Severe / Liver: Tumour infiltration: Marked / Liver: Tumour infiltration: Mild / Liver: Tumour infiltration: Minimal / Liver: Tumour infiltration: Moderate / Liver: Tumour infiltration: No / Liver: Tumour infiltration: Overall / Liver: Tumour infiltration: Severe / Spleen: Tumour infiltration: Marked / Spleen: Tumour infiltration: Mild / Spleen: Tumour infiltration: Minimal / Spleen: Tumour infiltration: Moderate / Spleen: Tumour infiltration: No / Spleen: Tumour infiltration: Overall / Spleen: Tumour infiltration: Severe / Tumour presence: Overall: % of mice
# From the text: Immunodeficient NOD-SCID-gammac−/− (NSG) mice aged 5 to 6 weeks were purchased from Charles River (NOD.Cg-Prkdcscid Il2rgtm1Wjl/SzJ). The mice arrived two weeks before the beginning of the experiments and were housed in micro-isolator cages during the entire course of the study. Immediately prior to the injection of Hodgkin lymphoma cells, mice were exposed to 3 Gy gamma irradiation using an IBL637 ^137Cs irradiator at a dose rate of 0.61 Gy/min. From 10^3 to 10^6 cells, either from the original cell lines or following amplification, were injected intravenously via the retro-orbital sinus. The mice were sacrificed by cervical dislocation and different organs were analysed and tumoural infiltration examined using multiple techniques.
# Two independent experiments were performed to investigate the dose-effect of EDO-S101 in NSG mice eight weeks after xenografting with L428 cells as in Example 8. The aim of the protocol shown in FIG. […]
# The mice were sacrificed by cervical dislocation. The sampled organs consisted of the eyes (site of injection), liver, spleen and bone marrow. Following dissection of different organs, including tumours, the first portion was used for flow cytometry (FACS) and cytogenetic analyses while the second was fixed in 4% paraformaldehyde (PFA) for immunohistochemistry (IHC). To obtain a single cell suspension, the tissues were first cut into pieces. Thereafter, the cells were physically disaggregated using an 80 μm nylon cell strainer and filtered a second time through a 70 μm nylon cell strainer (BD Biosciences, Erembodegem, Belgium).
# Cells were cytospun onto poly-L-lysine-coated glass slides at 700 rpm for 4 min, fixed with 10% formalin for 10 min, and treated with 0.25% Triton X-100 solution for 10 min. After blocking with 5% bovine serum albumin (Sigma), the cells were incubated with an anti-CD30 antibody (DAKO A/S, Glostrup, Denmark). Then, cells were treated with Cyanine 3 anti-mouse IgG (Invitrogen, Carlsbad, Calif.). As a negative control, staining was carried out in the absence of primary antibody. The L428-s cell line served as positive control.
# Individual microscopic findings following immunofluorescence CD30 staining of cytopsin slides: “0”=without any staining; “1”=minimal, <1% staining; “2”=mild, 1% staining; “3”=moderate, <10% staining; “4”=marked, 10-40% staining; “5”=severe, >40% of cells staining.
smiles,measurement,setting,value
Cn1c(CCCCCCC(=O)NO)nc2cc(N(CCCl)CCCl)ccc21 [EDO-S101],clones observed,L540 cell line,No clone was observed
same,Bone Marrow: Tumour infiltration: Marked,L428 cells; 80 mg/kg,0.0%
same,Bone Marrow: Tumour infiltration: Mild,L428 cells; 80 mg/kg,0.0%
same,Bone Marrow: Tumour infiltration: Minimal,L428 cells; 80 mg/kg,33.3%
same,Bone Marrow: Tumour infiltration: Moderate,L428 cells; 80 mg/kg,0.0%
same,Bone Marrow: Tumour infiltration: No,L428 cells; 80 mg/kg,33.3%
same,Bone Marrow: Tumour infiltration: Overall,L428 cells; 80 mg/kg,33.3%
same,Bone Marrow: Tumour infiltration: Severe,L428 cells; 80 mg/kg,0.0%
same,Injection site: Tumour infiltration: Marked,L428 cells; 80 mg/kg,0.0%
same,Injection site: Tumour infiltration: Mild,L428 cells; 80 mg/kg,33.3%
same,Injection site: Tumour infiltration: Minimal,L428 cells; 80 mg/kg,0.0%
same,Injection site: Tumour infiltration: Moderate,L428 cells; 80 mg/kg,0.0%
same,Injection site: Tumour infiltration: No,L428 cells; 80 mg/kg,0.0%
same,Injection site: Tumour infiltration: Overall,L428 cells; 80 mg/kg,33.3%
same,Injection site: Tumour infiltration: Severe,L428 cells; 80 mg/kg,0.0%
same,Liver: Tumour infiltration: Marked,L428 cells; 80 mg/kg,0.0%
same,Liver: Tumour infiltration: Mild,L428 cells; 80 mg/kg,0.0%
same,Liver: Tumour infiltration: Minimal,L428 cells; 80 mg/kg,0.0%
same,Liver: Tumour infiltration: Moderate,L428 cells; 80 mg/kg,0.0%
same,Liver: Tumour infiltration: No,L428 cells; 80 mg/kg,100.0%
same,Liver: Tumour infiltration: Overall,L428 cells; 80 mg/kg,0.0%
same,Liver: Tumour infiltration: Severe,L428 cells; 80 mg/kg,0.0%
same,Spleen: Tumour infiltration: Marked,L428 cells; 80 mg/kg,0.0%
same,Spleen: Tumour infiltration: Mild,L428 cells; 80 mg/kg,0.0%
same,Spleen: Tumour infiltration: Minimal,L428 cells; 80 mg/kg,0.0%
same,Spleen: Tumour infiltration: Moderate,L428 cells; 80 mg/kg,0.0%
same,Spleen: Tumour infiltration: No,L428 cells; 80 mg/kg,33.3%
same,Spleen: Tumour infiltration: Overall,L428 cells; 80 mg/kg,0.0%
same,Spleen: Tumour infiltration: Severe,L428 cells; 80 mg/kg,0.0%
same,Tumour presence: Overall,L428 cells; 80 mg/kg,66.7%
same,Bone Marrow: Tumour infiltration: Marked,L428 cells; 1 * 60 mg/kg,0.0%
same,Bone Marrow: Tumour infiltration: Mild,L428 cells; 1 * 60 mg/kg,0.0%
same,Bone Marrow: Tumour infiltration: Minimal,L428 cells; 1 * 60 mg/kg,25.0%
same,Bone Marrow: Tumour infiltration: Moderate,L428 cells; 1 * 60 mg/kg,0.0%
same,Bone Marrow: Tumour infiltration: No,L428 cells; 1 * 60 mg/kg,0.0%
same,Bone Marrow: Tumour infiltration: Overall,L428 cells; 1 * 60 mg/kg,25.0%
same,Bone Marrow: Tumour infiltration: Severe,L428 cells; 1 * 60 mg/kg,0.0%
same,Injection site: Tumour infiltration: Marked,L428 cells; 1 * 60 mg/kg,75.0%
same,Injection site: Tumour infiltration: Mild,L428 cells; 1 * 60 mg/kg,0.0%
same,Injection site: Tumour infiltration: Minimal,L428 cells; 1 * 60 mg/kg,0.0%
same,Injection site: Tumour infiltration: Moderate,L428 cells; 1 * 60 mg/kg,25.0%
same,Injection site: Tumour infiltration: No,L428 cells; 1 * 60 mg/kg,0.0%
same,Injection site: Tumour infiltration: Overall,L428 cells; 1 * 60 mg/kg,100.0%
same,Injection site: Tumour infiltration: Severe,L428 cells; 1 * 60 mg/kg,0.0%
same,Liver: Tumour infiltration: Marked,L428 cells; 1 * 60 mg/kg,0.0%
same,Liver: Tumour infiltration: Mild,L428 cells; 1 * 60 mg/kg,0.0%
same,Liver: Tumour infiltration: Minimal,L428 cells; 1 * 60 mg/kg,50.0%
same,Liver: Tumour infiltration: Moderate,L428 cells; 1 * 60 mg/kg,25.0%
same,Liver: Tumour infiltration: No,L428 cells; 1 * 60 mg/kg,25.0%
same,Liver: Tumour infiltration: Overall,L428 cells; 1 * 60 mg/kg,75.0%
same,Liver: Tumour infiltration: Severe,L428 cells; 1 * 60 mg/kg,0.0%
same,Spleen: Tumour infiltration: Marked,L428 cells; 1 * 60 mg/kg,0.0%
same,Spleen: Tumour infiltration: Mild,L428 cells; 1 * 60 mg/kg,0.0%
same,Spleen: Tumour infiltration: Minimal,L428 cells; 1 * 60 mg/kg,0.0%
same,Spleen: Tumour infiltration: Moderate,L428 cells; 1 * 60 mg/kg,0.0%
same,Spleen: Tumour infiltration: No,L428 cells; 1 * 60 mg/kg,25.0%
same,Spleen: Tumour infiltration: Overall,L428 cells; 1 * 60 mg/kg,0.0%
same,Spleen: Tumour infiltration: Severe,L428 cells; 1 * 60 mg/kg,0.0%
same,Tumour presence: Overall,L428 cells; 1 * 60 mg/kg,100.0%
same,Bone marrow,"L428 cells; 1 * 60 mg/kg, individual mice","1 (“1”=minimal, <1% staining)"
same,"Spleen, red pulp activation, diffuse","L428 cells; 1 * 60 mg/kg, individual mice",0
same,"Eye and/or periocular mucosa, periocular tumour cell infiltration, focal/multifocal/diffuse","L428 cells; 1 * 80 mg/kg, individual mice","2 (“2”=mild, 1% staining)"
same,"Liver, Tumour cell infiltration","L428 cells; 1 * 80 mg/kg, individual mice",0
same,"Spleen, red pulp activation, diffuse","L428 cells; 1 * 80 mg/kg, individual mice",0
same,Bone Marrow: Tumour infiltration: Marked,L428 cells; 2 * 60 mg/kg,0.0%
same,Bone Marrow: Tumour infiltration: Mild,L428 cells; 2 * 60 mg/kg,0.0%
same,Bone Marrow: Tumour infiltration: Minimal,L428 cells; 2 * 60 mg/kg,55.6%
same,Bone Marrow: Tumour infiltration: Moderate,L428 cells; 2 * 60 mg/kg,0.0%
same,Bone Marrow: Tumour infiltration: No,L428 cells; 2 * 60 mg/kg,22.2%
same,Bone Marrow: Tumour infiltration: Overall,L428 cells; 2 * 60 mg/kg,55.6%
same,Bone Marrow: Tumour infiltration: Severe,L428 cells; 2 * 60 mg/kg,0.0%
same,Injection site: Tumour infiltration: Marked,L428 cells; 2 * 60 mg/kg,0.0%
same,Injection site: Tumour infiltration: Mild,L428 cells; 2 * 60 mg/kg,11.1%
same,Injection site: Tumour infiltration: Minimal,L428 cells; 2 * 60 mg/kg,0.0%
same,Injection site: Tumour infiltration: Moderate,L428 cells; 2 * 60 mg/kg,0.0%
same,Injection site: Tumour infiltration: No,L428 cells; 2 * 60 mg/kg,0.0%
same,Injection site: Tumour infiltration: Overall,L428 cells; 2 * 60 mg/kg,11.1%
same,Injection site: Tumour infiltration: Severe,L428 cells; 2 * 60 mg/kg,0.0%
same,Liver: Tumour infiltration: Marked,L428 cells; 2 * 60 mg/kg,0.0%
same,Liver: Tumour infiltration: Mild,L428 cells; 2 * 60 mg/kg,11.1%
same,Liver: Tumour infiltration: Minimal,L428 cells; 2 * 60 mg/kg,44.4%
same,Liver: Tumour infiltration: Moderate,L428 cells; 2 * 60 mg/kg,0.0%
same,Liver: Tumour infiltration: No,L428 cells; 2 * 60 mg/kg,44.4%
same,Liver: Tumour infiltration: Overall,L428 cells; 2 * 60 mg/kg,55.6%
same,Liver: Tumour infiltration: Severe,L428 cells; 2 * 60 mg/kg,0.0%
same,Spleen: Tumour infiltration: Marked,L428 cells; 2 * 60 mg/kg,0.0%
same,Spleen: Tumour infiltration: Mild,L428 cells; 2 * 60 mg/kg,0.0%
same,Spleen: Tumour infiltration: Minimal,L428 cells; 2 * 60 mg/kg,44.4%
same,Spleen: Tumour infiltration: Moderate,L428 cells; 2 * 60 mg/kg,0.0%
same,Spleen: Tumour infiltration: No,L428 cells; 2 * 60 mg/kg,11.1%
same,Spleen: Tumour infiltration: Overall,L428 cells; 2 * 60 mg/kg,44.4%
same,Spleen: Tumour infiltration: Severe,L428 cells; 2 * 60 mg/kg,0.0%
same,Tumour presence: Overall,L428 cells; 2 * 60 mg/kg,66.7%
same,"Eye and/or periocular mucosa, periocular tumour cell infiltration, focal/multifocal/diffuse","L428 cells; 2 * 60 mg/kg, individual mice","2 (“2”=mild, 1% staining)"
same,"tumour cells in organs (liver, spleen, bone marrow)",L428 cells; single dose of 80 mg/kg,No tumour cells were observed in any organs
